In US8034928B2, “Fluorescence assays with improved sensitivity” (Wisconsin Alumni Research Foundation, priority 2003, dated 2011):

Tests used:
[1] = Stability: generation of fluorescence in PBS, DMEM or water without trigger; assay type: physicochemical; conditions: DMEM and PBS, 5 μM, no cells
Method: The biological utility of pro-fluorophore 3 was then studied. To be useful, a latent fluorophore must remain non-fluorescent or have a small fluorescence in a biological environment. Accordingly, the accumulation of fluorescence in Dulbecco's modified Eagle's medium (DMEM) and phosphate-buffered saline (PBS) containing either fluorescein diacetate (which is a widely used pro-fluorophore) or 3 were studied.
A solution of pro-fluorophore 3 (5 μM) in 2 mL PBS was treated with PLE (0.5 μg), and the mixture was kept at room temperature for 4 h. The fluorescence excitation-emission spectra of the solution were recorded. The procedure was repeated for a solution of pro-fluorophore 3 treated in an identical manner, except for the addition of PLE.

HeLa cells = experiment: Fluorescence microscopy of HeLa cells incubated with pro-fluorophore in DMEM; assay type: cell-based; conditions: 10 μM, 2 h, 37° C., unwashed cells
Method: FIGS. 3B and C show unwashed HeLa cells incubated for 2 h with fluorescein diacetate (panel B; 10 μM) or 3 (panel C; 10 μM) at 37° C. in DMEM (5% CO2, 100% humidity). In FIG. 3C, the grey/white areas show the intensity of the fluorescence with the highest fluorescence shown as the lightest shade.
Fluorescence microscopy was used to determine the fate of fluorescein diacetate and pro-fluorophore 3 in DMEM containing HeLa cells.

With `CC(=O)Oc1ccc2c(c1)Oc1cc(OC(C)=O)ccc1C21OC(=O)c2ccccc21` [fluorescein diacetate] the “accumulation of fluorescence in medium (stability)” value [1] was “became fluorescent in minutes” and the “fluorescence in HeLa cells” value (HeLa cells) was “much greater in the medium than in HeLa cells”.
